Results: PMC7181634, “Enhanced succinic acid production by Mannheimia employing optimal malate dehydrogenase” (Nature Communications, 2020)

What was measured:
[1] = biological target: T1, MsMDH ([Mannheimia] succiniciproducens, UniProt Q65T37); assay: NADH oxidation at […] nm; modified Briggs-Haldane fit; assay type: biochemical; settings: pH 7.0, 0.1 M Tris-HCl, NADH co-substrate, room temperature; uncompetitive substrate inhibition
T1 construct: gene mdh; full length, C-terminal 6xHis (pET30a), expressed in E. coli BL21(DE3), Ni-NTA, ion exchange and size exclusion
T1 sequence (Q65T37 1-312): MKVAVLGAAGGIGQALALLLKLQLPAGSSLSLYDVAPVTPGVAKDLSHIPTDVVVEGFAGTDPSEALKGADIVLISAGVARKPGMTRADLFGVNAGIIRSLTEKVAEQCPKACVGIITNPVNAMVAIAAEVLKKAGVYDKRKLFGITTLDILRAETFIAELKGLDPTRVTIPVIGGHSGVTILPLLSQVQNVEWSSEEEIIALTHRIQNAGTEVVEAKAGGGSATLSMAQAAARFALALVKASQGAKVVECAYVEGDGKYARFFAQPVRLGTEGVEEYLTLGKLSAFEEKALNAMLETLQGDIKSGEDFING

[2] = biological target: T2, CgMDH (Corynebacterium glutamicum, UniProt Q8NN33); assay: as above; assay type: biochemical; settings: pH 7.0, 0.1 M Tris-HCl, NADH co-substrate, room temperature; substrate inhibition
T2 construct: gene mdh; full length, C-terminal 6xHis (pET30a), expressed in E. coli BL21(DE3), Ni-NTA, ion exchange and size exclusion
T2 sequence (Q8NN33 whole entry): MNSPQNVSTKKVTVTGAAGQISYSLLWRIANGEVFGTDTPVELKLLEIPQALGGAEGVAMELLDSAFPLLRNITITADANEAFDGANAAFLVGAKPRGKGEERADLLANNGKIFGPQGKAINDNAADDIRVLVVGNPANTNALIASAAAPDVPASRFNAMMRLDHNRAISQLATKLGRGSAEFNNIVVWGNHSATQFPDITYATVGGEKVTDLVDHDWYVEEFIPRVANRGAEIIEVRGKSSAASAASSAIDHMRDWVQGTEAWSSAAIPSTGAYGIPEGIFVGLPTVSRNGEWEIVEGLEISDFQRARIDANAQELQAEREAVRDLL

- MsMDH / ki [1]: 47.3 ± 22.1 µM
- CgMDH / ki [2]: 500.0 ± 114.1 µM
SMILES: O=C(O)CC(=O)C(=O)O [oxaloacetate]
